Laboratory results taken from publication PMC3532118, “A Novel Muscarinic Antagonist R2HBJJ Inhibits Non-Small Cell Lung Cancer Cell Growth and Arrests the Cell Cycle in G0/G1” (PLoS ONE, 2012).
Read-outs that look alike come from different tables or passages of the source.

What was measured:
H1299 cells [1] = assay: Exogenous ACh combined with R2HBJJ, cell viability (SRB)
Method: To determine the correlation between cholinergic signal pathways and R2HBJJ-induced growth inhibition, exogenous AChR agonist ACh was used. The effects of ACh on the growth of H1299 and on R2HBJJ-induced growth inhibition were observed.
Cells were seeded at a density of 6.0×10^3 cells/well in 96-well plates. After overnight incubation, the cells were treated with R2HBJJ (1.6–100 µM) or other antagonists (0.3–100 µM) for 72 h. The inhibitory effects of the antagonists on cell growth were determined using SRB assay, as described previously. For the combination administration, the agonist was added 1 h before R2HBJJ. Each experiment was performed in six replicates and repeated for three times. Cells treated with solvent (DMSO) were used as a control, with viability set at 100%.
(§1) GraphPad Prism 5 software was used for statistical analysis. For competition binding and Guinea-pig tracheal contraction assay, the IC50 values were determined by using the non-linear curve-fitting program. The inhibition constants (Ki values) were calculated by using the Cheng-Prusoff equation. For the experiments of exogenous ACh combined with R2HBJJ, two-way ANOVA was used to compare the interaction of two treatment factors. Post-hoc analyses were performed with Bonferroni's tests for comparisons to controls. For the cell viability assay after siRNA transfection, one-way ANOVA followed by Dunnett's t test was used. A P value of less than 0.05 was considered statistically significant.

H1299 cells [2] = assay: Cell viability assay (SRB), H1299; type: cell-based, human
Method: (§3) Cells were seeded at a density of 6.0×10^3 cells/well in 96-well plates. […] The inhibitory effects of the antagonists on cell growth were determined using SRB assay, as described previously [37]. […] Each experiment was performed in six replicates and repeated for three times. Cells treated with solvent (DMSO) were used as a control, with viability set at 100%.

BEP2D cells = assay: Cell viability assay (SRB), BEP2D; type: cell-based; details: Homo sapiens, read-out: 50% growth-inhibitory concentration (GI50), 72 h, 100 µM highest concentration tested
Method: as §3

[3] = tested on: cyclin D1-CDK4/6-Rb in H1299 cells; assay: Western blot of cell cycle regulatory proteins and Rb phosphorylation; type: cell-based, human
Method: Cell cycle transition from G1 to S is mainly activated by two different kinase composites: cyclin D1/CDK4, 6, and cyclin E, A/CDK2. Rb is the primary substrate of cyclin D-dependent kinase and plays a key role in the network of cell cycle regulation. To investigate the underlying molecular mechanisms of G0/G1 arrest induced by R2HBJJ, the time-dependent changes of several related cell cycle regulatory molecules were evaluated after treatment with 20 µM R2HBJJ in H1299 cells by using western blot analysis. […] The decrease of Rb phosphorylated at the position of Ser^807/811 occurred as early as 3 h after treatment and before apparent cell viability change. […] Further we evaluated the concentration response of Rb phosphorylation reduced after treatment with R2HBJJ for 48 h (Fig. 8B).
Cells were harvested and subjected to lysis in the buffer X (50 mM Tris, 270 mM NaCl, 1% Triton X-100, pH 7.4). Equal amounts of lysates (30 µg) were separated on 10% SDS-PAGE and then transferred to polyvinylidene difluoride membranes (Millipore). Membranes were then blocked with PBS buffer containing 5% low fat milk and 0.1% Tween 20 (PBST) for 1 h at room temperature and then incubated with primary antibodies (1∶1000–2000) overnight at 4°C. After being washed three times with PBST, membranes were incubated with peroxidase-conjugated secondary antibodies (1∶5000) for 1 h at room temperature. The membranes were washed with PBST again and developed with a pro-light HRP chemiluminescence detection kit (TianGen Biotech, China). β-actin was used as a loading control.

H460 cells = assay: Cell viability assay (SRB), H460; type: cell-based; details: Homo sapiens, NCI-H460, read-out: 50% growth-inhibitory concentration (GI50), H460, 72 h
Method: as §3

H1299 cells [4] = assay: cells
Method: as §1

[5] = target: human muscarinic receptor M3 (Homo sapiens, UniProt P20309); assay: biochemical
Method: (§2) Bound radioligand was separated from free by rapid vacuum filtration through GF/C glass fiber filters (Whatman). The filters were rinsed three times with ice cold PBS. After being dried, the fibers were placed in scintillation vials with 0.5 ml of BetaPlate Scint. Radioactivity trapped on the filters was quantified by a BECKMAN Beta counter. The assay was repeated three times with duplicate samples.
as §1

[6] = target: human muscarinic receptor M1 (Homo sapiens, UniProt P11229); assay: biochemical
Method: as §2, §1

[7] = target: T1, human muscarinic receptor M2 (Homo sapiens, UniProt P08172); assay: Radioligand binding assay with [3H]NMS (saturation and competition), M2; details: mean ± SD
T1 construct: purchased Perkin Elmer Life and Analytical Sciences
Method: as §2, §1

H157 cells = assay: Cell viability assay (SRB), H157; type: cell-based; details: Homo sapiens, NCI-H157, read-out: 50% growth-inhibitory concentration (GI50), H157, 72 h
Method: as §3

[8] = target: T2, human muscarinic receptor M4 (Homo sapiens, UniProt P08173); assay: biochemical; type: binding; details: mean ± SD
T2 construct: purchased Perkin Elmer Life and Analytical Sciences
Method: as §2
as §1, with “used.” for “used. A P value of less than 0.05 was considered statistically significant.”

H1299 cells [9] = assay: Cell cycle analysis by flow cytometry, H1299; type: cell-based, human; details: H1299, 20 µM
Method: Alterations in cell cycle were determined by using flow cytometric assay. Cells were seeded at a density of 1×10^5 cells/well in six-well plates and synchronized by plating in RPMI-1640 containing 1% FBS for 24 h. For time-dependent response, cells were incubated in 2 ml fresh RPMI-1640 containing 10% FBS with 20 µM R2HBJJ for 24, 48, 72 h. For concentration-dependent response, cells were incubated for 48 h with R2HBJJ at final concentrations of 2.5, 5, 10, 15, 20 µM in 2 ml fresh RPMI-1640 containing 10% FBS. Fresh media added in the control well simultaneously. After treatment, the cells were harvested with trypsin, washed once with PBS, and then fixed in 70% ethanol overnight at 4°C. Before flow cytometry analysis, cells were stained with 200 µg/ml Ribonuclease A and 50 µg/ml propidium iodide (Sigma) for 30 min at room temperature away from light. 1×10^4 cells per sample were analyzed using a FACSCalibur flow cytometer (BD Biosciences). Data were evaluated using Modfit software.

A549 cells = assay: Cell viability assay (SRB), A549; type: cell-based; details: Homo sapiens, read-out: 50% growth-inhibitory concentration (GI50), A549, 72 h, 100 µM highest concentration tested
Method: as §3

[10] = target: T3, human muscarinic receptor M5 (Homo sapiens, UniProt P08912); assay: Radioligand binding assay with [3H]NMS (saturation and competition), M5; details: mean ± SD
T3 construct: purchased Perkin Elmer Life and Analytical Sciences
Method: as §2, §1

[11] = Homo sapiens, NCI-H1299, 72 h, read-out: cell viability
[12] = H1299, 72 h, SRB, antagonists 0.3–100 µM, no exogenous agonist
[13] = 2.4 nM [3H]NMS, n = 3, read-out: IC50 inhibiting [3H]NMS binding
[14] = Cheng-Prusoff, n = 3, read-out: Ki inhibiting [3H]NMS binding

T1 sequence (P08172 whole entry): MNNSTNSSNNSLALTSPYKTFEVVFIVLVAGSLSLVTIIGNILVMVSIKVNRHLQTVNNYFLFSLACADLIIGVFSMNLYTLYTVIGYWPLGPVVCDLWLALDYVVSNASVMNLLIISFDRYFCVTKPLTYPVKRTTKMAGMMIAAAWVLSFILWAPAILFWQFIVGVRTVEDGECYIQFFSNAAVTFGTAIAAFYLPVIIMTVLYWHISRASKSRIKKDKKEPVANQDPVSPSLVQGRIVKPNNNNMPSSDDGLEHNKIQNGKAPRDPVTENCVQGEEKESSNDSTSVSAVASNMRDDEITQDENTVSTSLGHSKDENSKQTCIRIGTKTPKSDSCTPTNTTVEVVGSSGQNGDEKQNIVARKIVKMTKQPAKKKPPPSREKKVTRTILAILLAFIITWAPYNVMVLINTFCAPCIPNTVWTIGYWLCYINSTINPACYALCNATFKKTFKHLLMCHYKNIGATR
Chain of human muscarinic receptor M1 (P11229 whole entry): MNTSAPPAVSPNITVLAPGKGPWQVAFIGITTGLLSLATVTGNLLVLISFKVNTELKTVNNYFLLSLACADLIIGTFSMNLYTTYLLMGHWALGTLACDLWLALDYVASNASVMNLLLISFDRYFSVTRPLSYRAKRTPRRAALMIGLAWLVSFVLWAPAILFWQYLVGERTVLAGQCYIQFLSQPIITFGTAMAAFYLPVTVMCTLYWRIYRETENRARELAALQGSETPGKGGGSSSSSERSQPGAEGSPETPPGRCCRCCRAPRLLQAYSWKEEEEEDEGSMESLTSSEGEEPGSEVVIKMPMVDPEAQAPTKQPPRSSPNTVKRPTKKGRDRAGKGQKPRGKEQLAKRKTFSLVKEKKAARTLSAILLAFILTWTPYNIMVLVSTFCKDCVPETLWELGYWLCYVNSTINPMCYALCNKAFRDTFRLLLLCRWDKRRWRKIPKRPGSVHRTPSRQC
Chain of human muscarinic receptor M3 (P20309 whole entry): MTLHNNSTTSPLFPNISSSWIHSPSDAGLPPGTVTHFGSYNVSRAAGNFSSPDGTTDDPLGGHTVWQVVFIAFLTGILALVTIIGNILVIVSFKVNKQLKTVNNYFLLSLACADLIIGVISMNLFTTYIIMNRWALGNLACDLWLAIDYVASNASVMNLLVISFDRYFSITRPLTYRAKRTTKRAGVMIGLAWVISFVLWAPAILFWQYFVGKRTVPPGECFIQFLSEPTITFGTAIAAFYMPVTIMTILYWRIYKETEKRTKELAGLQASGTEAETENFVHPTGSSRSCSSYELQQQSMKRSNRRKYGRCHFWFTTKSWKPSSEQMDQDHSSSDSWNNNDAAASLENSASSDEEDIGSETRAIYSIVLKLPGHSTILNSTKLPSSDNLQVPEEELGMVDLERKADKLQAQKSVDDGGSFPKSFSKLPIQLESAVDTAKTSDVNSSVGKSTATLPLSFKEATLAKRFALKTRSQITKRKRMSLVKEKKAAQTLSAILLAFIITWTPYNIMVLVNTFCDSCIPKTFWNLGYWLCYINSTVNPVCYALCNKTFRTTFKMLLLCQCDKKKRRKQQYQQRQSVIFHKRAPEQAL
T2 sequence (P08173 whole entry): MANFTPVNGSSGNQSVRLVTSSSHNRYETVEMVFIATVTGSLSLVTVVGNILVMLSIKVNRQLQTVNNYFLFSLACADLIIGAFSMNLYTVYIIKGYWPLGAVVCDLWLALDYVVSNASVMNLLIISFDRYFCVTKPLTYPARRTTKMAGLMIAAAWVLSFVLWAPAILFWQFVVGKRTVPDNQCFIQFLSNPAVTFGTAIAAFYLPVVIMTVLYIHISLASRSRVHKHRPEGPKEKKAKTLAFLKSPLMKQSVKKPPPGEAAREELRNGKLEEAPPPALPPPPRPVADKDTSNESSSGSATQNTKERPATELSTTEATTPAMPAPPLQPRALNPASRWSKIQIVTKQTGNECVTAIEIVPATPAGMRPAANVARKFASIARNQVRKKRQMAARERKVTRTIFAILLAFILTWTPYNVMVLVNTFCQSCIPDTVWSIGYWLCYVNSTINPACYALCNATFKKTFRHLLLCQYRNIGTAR
T3 sequence (P08912 whole entry): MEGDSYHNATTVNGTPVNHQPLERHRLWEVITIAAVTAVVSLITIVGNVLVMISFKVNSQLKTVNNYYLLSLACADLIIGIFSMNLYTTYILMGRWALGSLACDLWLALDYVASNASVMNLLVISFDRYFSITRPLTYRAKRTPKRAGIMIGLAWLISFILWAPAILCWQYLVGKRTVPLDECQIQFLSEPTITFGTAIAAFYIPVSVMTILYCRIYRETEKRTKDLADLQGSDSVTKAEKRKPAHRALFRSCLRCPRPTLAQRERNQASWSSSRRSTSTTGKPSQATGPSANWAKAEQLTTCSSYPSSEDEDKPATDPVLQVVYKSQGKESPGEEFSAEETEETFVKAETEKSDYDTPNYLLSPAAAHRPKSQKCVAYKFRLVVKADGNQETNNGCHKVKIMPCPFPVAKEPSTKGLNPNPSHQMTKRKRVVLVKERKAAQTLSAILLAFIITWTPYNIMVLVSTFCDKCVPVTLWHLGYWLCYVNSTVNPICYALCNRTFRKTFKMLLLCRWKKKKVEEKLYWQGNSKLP

CC(=O)OCC[N+](C)(C)C [ACh, Acetylcholine, reference compound]
effect of exogenous ACh alone on H1299 cell growth (H1299 cells [1]; ACh 1, 10 and 100 µM, 72 h): no significant effects on H1299 cell growth | viability at 1 µM (H1299 cells [1]; [11]): 102 ± 1.8% | viability at 10 µM (H1299 cells [1]; [11]): 105 ± 2.74% | viability at 100 µM (H1299 cells [1]; [11]): 99 ± 2.72%

CCN(CC)CC1CCCCN1CC(=O)N1c2ccccc2C(=O)Nc2cccnc21 (stereo not drawn) [AF-DX116]
effect on H1299 cell proliferation (H1299 cells [2]; [12]): inhibition on cell proliferation at the highest concentration tested

Br.CO[C@H]1CC=C2CCN3CCC4=C(CC(=O)OC4)[C@]23C1 [DhβE, Dihydro-β-erythroidine hydrobromide]
effect on H1299 cell proliferation (H1299 cells [2]; [12]): no obvious effects on cell proliferation

O[C@@](CO[C@H]1CN2CCC1CC2)(c1ccccc1)C1CCCC1 [R2-PHC]
inhibitory potency relative to darifenacin (H1299 cells [2]; H1299, 72 h, SRB): about 3.7 fold | effect on H1299 cell proliferation (H1299 cells [2]; [12]): significantly inhibited H1299 cell proliferation in a concentration-dependent manner

O[C@@](CO[C@H]1C[N+]2(C3CC3)CCC1CC2)(c1ccccc1)C1CCCC1 [R2HBJJ]
GI50 (BEP2D cells): > 100000 nM | levels of cyclin D1, CDK4 and CDK6 proteins ([3]; H1299, 20 µM, 3–60 h): dramatic down-regulation | levels of cyclin E and CDK2 ([3]; H1299, 20 µM, 3–60 h): remained basically unaltered | phosphorylation of Rb (particularly at Ser807/811) ([3]; H1299, 20 µM, 3–60 h): decreased time-dependently | lowest concentration at which decrease of Rb phosphorylated at Ser807/811 occurred ([3]; H1299, 48 h, 1.25–20 µM tested): 1.25 µM | GI50 (H460 cells): 8800 nM | viability at 8 µM (H1299 cells [4]; [11]): 83.5% | viability at 16 µM (H1299 cells [4]; [11]): 57.4% | effect on cell growth after M3 siRNA transfection (H1299 cells [4]; M3 siRNA treated H1299 cells, R2HBJJ 8 µM and 16 µM, 72 h): didn't further influence the cell growth | IC50 [5]: 0.38 nM | Ki [5]: 0.0679 nM | IC50 [6]: 0.739 nM | Ki [6]: 0.0786 nM | IC50 [7, 13]: 5.33 nM | Ki [7, 14]: 1.33 nM | viability at 10 µM (H1299 cells [1]; Homo sapiens, NCI-H1299, 72 h, read-out: cell viability, R2HBJJ 10 µM, ACh 0 µM, H1299, 72 h): 54.1 ± 3.89% | viability at 20 µM (H1299 cells [1]; Homo sapiens, NCI-H1299, 72 h, read-out: cell viability, R2HBJJ 20 µM, ACh 0 µM, H1299, 72 h): 23.2 ± 2.14% | viability at 10 µM (H1299 cells [1]; Homo sapiens, NCI-H1299, read-out: cell viability, R2HBJJ 10 µM, ACh 1 µM added 1 h before, H1299, 72 h): 55 ± 6.79% | viability at 10 µM (H1299 cells [1]; Homo sapiens, NCI-H1299, read-out: cell viability, R2HBJJ 10 µM, ACh 10 µM added 1 h before, H1299, 72 h): 82.3 ± 5.82% | viability at 10 µM (H1299 cells [1]; Homo sapiens, NCI-H1299, read-out: cell viability, R2HBJJ 10 µM, ACh 100 µM added 1 h before, H1299, 72 h): 91.1 ± 3.65% | viability at 20 µM (H1299 cells [1]; Homo sapiens, NCI-H1299, read-out: cell viability, R2HBJJ 20 µM, ACh 1 µM added 1 h before, H1299, 72 h): 24.1 ± 1.94% | viability at 20 µM (H1299 cells [1]; Homo sapiens, NCI-H1299, read-out: cell viability, R2HBJJ 20 µM, ACh 10 µM added 1 h before, H1299, 72 h): 35.6 ± 4.48% | viability at 20 µM (H1299 cells [1]; Homo sapiens, NCI-H1299, read-out: cell viability, R2HBJJ 20 µM, ACh 100 µM added 1 h before, H1299, 72 h): 58.5 ± 2.83% | GI50 (H157 cells): 28500 nM | inhibitory potency relative to darifenacin (H1299 cells [2]; H1299, 72 h, SRB): about 3.7 fold | effect on H1299 cell proliferation (H1299 cells [2]; [12]): significantly inhibited H1299 cell proliferation in a concentration-dependent manner | GI50 (H1299 cells [2]; Homo sapiens, NCI-H1299, read-out: 50% growth-inhibitory concentration (GI50), H1299, 72 h, SRB): 8500 nM | IC50 [8, 13]: 1.47 nM | Ki [8, 14]: 0.106 nM | percentage of G0/G1 phase (H1299 cells [9]; 48 h (Fig. 7B, concentration series), control 39.60%): 70.01% | percentage of G0/G1 phase (H1299 cells [9]; 72 h (Fig. 7A), control 40.35%): 76.60% | percentage of S phase (H1299 cells [9]; 72 h (Fig. 7A), control 46.14%): 15.93% | GI50 (A549 cells): > 100000 nM | IC50 [10, 13]: 1.61 nM | Ki [10, 14]: 0.264 nM

CN1[C@@H]2CC[C@H]1C[C@@H](OC(=O)C(CO)c1ccccc1)C2 (stereo partly drawn) [atropine]
effect on H1299 cell proliferation (H1299 cells [2]): no obvious effects on cell proliferation

NC(=O)C(c1ccccc1)(c1ccccc1)[C@@H]1CCN(CCc2ccc3c(c2)CCO3)C1 [darifenacin]
effect on H1299 cell proliferation (H1299 cells [2]; [12]): significantly inhibited H1299 cell proliferation in a concentration-dependent manner

CNC1(C)C2CCC(C2)C1(C)C (stereo not drawn) [mecamylamine]
effect on H1299 cell proliferation (H1299 cells [2]; [12]): no obvious effects on cell proliferation

CN1CCN(CC(=O)N2c3ccccc3C(=O)Nc3cccnc32)CC1 [pirenzepine]
effect on H1299 cell proliferation (H1299 cells [2]; [12]): no obvious effects on cell proliferation

α-bungarotoxin [α-bgt]
effect on H1299 cell proliferation (H1299 cells [2]): no obvious effects on cell proliferation
